Laboratory results: patent US10487117B2, “Antimicrobial peptide for nosocomial infections” (priority 2015, dated 2019)
Where two headings read alike, the source gives them in different places. Residues, ends and D or L forms follow the SMILES beside them.

Key:
Type in all cases: cell-based, Pseudomonas aeruginosa
planktonic P. aeruginosa [1] = test system: planktonic P. aeruginosa
Method: The microbial cell viability was then assayed using the BacTiter-Glo™ luminescent kit. […] No cell reduction was detected for the peptide GL-13 even for the maximum concentration assayed (50 μM).
Bacterial viability was assayed using the BacTiter-Glo™ microbial cell viability kit. Briefly, protein/peptides were dissolved in 10 mM sodium phosphate, 0.1M buffer, pH 7.5, serially diluted from 50 to 0.1 μM and tested in a 96-well microtiter plate containing P. aeruginosa planktonic (OD600˜0.2) or 24 h formed biofilm for 4 h at 37° C. Fifty microliters of BacTiter-Glo™ reagent was added to each well according to the manufacturer's instructions and incubated at room temperature for 15 min. Luminescence was read on a Victor3 plate reader with a 3-s integration time. Fifty percent (ED50) and total inhibitory concentrations were calculated by fitting the data to a dose-response curve.

planktonic P. aeruginosa [2] = experiment: DiSC3(5) cytoplasmic membrane depolarization assay, planktonic; settings: for Depolarization %max: 10% Triton X-100 as maximum reference
Method: To further investigate the antimicrobial mechanism of action of the peptide, its ability to depolarize P. aeruginosa membranes was evaluated. Depolarization activity was analyzed by the DiSC3(5) assay (Table 5). DiSC3(5) is a fluorescent probe, which is sensitive to membrane potential. The DiSC3(5) fluorescence is quenched upon interaction with intact cell membranes. When the membrane potential is lost, the probe is released to the medium, resulting in an increase of fluorescence that can be recorded as a function of peptide concentration. Thus, the half depolarization action (ED50) was evaluated, defined as the peptide concentration needed to achieve a half-depolarization effect, and the total depolarization activity at final incubation time (Table 3).
Membrane depolarization was followed using the method described earlier (Torrent M. et al. 2008). Briefly, bacterial cells were grown at 37° C. to an OD600=0.2, centrifuged at 5000×g for 7 min, washed with 5 mM Hepes at pH 7.2 containing 20 mM glucose, and resuspended in 5 mM Hepes-KOH, 20 mM glucose, and 100 mM KCl at pH 7.2 to an OD600=0.05 and 200 μl were transferred to a microtiter plate for planktonic assays. For biofilm assay, 24 h formed P. aeruginosa biofilm in a 96-well microtiter plate were washed three times with sterile PBS. Afterwards P. aeruginosa biofilms were washed with 5 mM Hepes at pH 7.2 containing 20 mM glucose, and rinsed in 5 mM Hepes-KOH, 20 mM glucose, and 100 mM KCl at pH 7.2. In both cases, DiSC3(5) was added to a final concentration of 0.4 μM and changes in the fluorescence were continuously recorded after addition of peptides at 10 μM in a Victor3 plate reader. A maximum reference value for total depolarization is calculated for Triton X-100 at 10%. Alternatively, changes in the fluorescence were continuously recorded after addition of a serially diluted protein/peptides from 50 to 0.1 μM. The peptide concentration required to achieve half of total and total membrane depolarization after 40 min incubation time was estimated from nonlinear regression analysis as previously described (Torrent M. et al. 2010)

planktonic P. aeruginosa [3] = experiment: SYTOX Green membrane permeabilization assay, planktonic; settings: for Permeabilization %max: 10% Triton X-100 as maximum reference
Method: Further insight into the membrane-permeabilizing effect of the selected AMPs against P. aeruginosa was evaluated by the Sytox Green assay. Local membrane disturbances allow the cell uptake of the fluorescent Sytox Green dye that subsequently stains the cell nucleic acids; the fluorescence increase is registered to monitor the cell membrane permeabilization. Therefore, the half permeabilization action (ED50) was measured, and the total permeabilization activity expressed as a percentage (Table 5). […] On the other hand, WY-12 and CA-M required a 6- to 7-fold greater concentration than RNase 3 to produce half of their permeabilizing effect.
Membrane permeabilization was followed using the method SYTOX Green Fluorescence membrane permeabilization assay. In the planktonic assay, bacterial cells were grown at 37° C. to an OD600=0.2, centrifuged at 5000×g for 5 min, and resuspended in 1×PBS to an OD600=0.2. An aliquot of 200 μl was then transferred to a microtiter plate. For biofilm assay, 24 h formed P. aeruginosa biofilm in a 96-well microtiter plate were washed three times with sterile PBS. SYTOX Green was added to a final concentration of 1 μM and incubated 15 min in darkness. Changes in the fluorescence were continuously recorded after addition of a serially diluted protein/peptides from 50 to 0.1 μM in a Victor3 plate reader. The peptide concentration required to achieve half of total and total membrane permeabilization achieved after 40 min was estimated from nonlinear regression analysis as previously described (Pulido D. et al. Antimicrob Agents Chemother 2013). A maximum reference value was taken for Triton X-100 at 10%.

[4] = test system: pre-established P. aeruginosa biofilm; experiment: Biofilm eradication assay, crystal violet staining; settings: 24 h formed biofilm; 4 h at 37° C.; 10% Triton X-100 as maximum reference
Method: Following, the biofilm eradication activity was determined (FIG. 1 and Table 6). […] Moreover, the biofilm eradication activity of all the tested reference peptides was well above the maximum concentration tested (50 μM), except for RN3(5-17P22-36) which was able to eradicate the biofilm close to 50 μM.
Biofilm formation assay was modified from the previously described protocol (Huedo P. et al. 2014). Briefly, overnight cultures of P. aeruginosa were centrifuged at 5000×g for 5 min, washed and adjusted to an OD600=0.1 in tryptic soy medium (TSB). Two hundred microliters of the bacterial suspension were dispensed in each well of a polystyrene 96-well microtiter plate (Greiner Bio-one, France). The plate was incubated at 37° C. on an orbital shaker (30 rpm). The media was exchanged with fresh pre-warmed TSB after 4 h, in order to remove the non-attached bacteria. After 24 h incubation, the formation of biofilm was then evaluated using the crystal violet staining technique (Stepanovic S. et al. 2000). Briefly, the plates were washed three times with PBS, fixed at 60° C. for 1 h, and stained for 15 min with 200 μl of 0.1% crystal violet. After the dye was discarded, plates were rinsed in PBS and allowed to dry for 30 min at 37° C. Crystal violet was dissolved in 250 μl of 95% ethanol for 15 min, and the OD570 of the extracted dye was measured using a Victor3 plate reader (Perkin-Elmer, Waltham, Mass.).
Biofilms were grown as above. Twenty-four hour formed P. aeruginosa biofilm was washed three times with sterile PBS, and rinsed with 10 mM sodium phosphate buffer pH 7.5. Each well was treated with increasing protein/peptide concentrations (from 0.01 to 50 μM) and incubated at 37° C. for 4 h. The biofilm eradication was then evaluated using the crystal violet staining technique (Stepanovic S. et al. 2000). The ability of the antimicrobial peptides to disperse and reduce the biofilm mass of preformed biofilms was calculated. The peptide concentration required to achieve total preformed biofilm eradication after 4 h incubation time was estimated. A maximum reference value was taken for Triton X-100 at 10%. The minimum biofilm eradication concentration (MBEC), defined as the protein/peptide concentration where the 99.9% of the biofilm mass is eradicated was estimated.

[5] = planktonic P. aeruginosa, 4 h at 37° C., mean ± SEM, N.D. = not detected at 50 μM, read-out: IC50 (50% bacterial viability)
[6] = 40 min, N.D. = not detected at 50 μM

SMILES | IC50 (planktonic P. aeruginosa [1]; [5]) [nM] | Depolarization %max (planktonic P. aeruginosa [2]) [%] | Permeabilization %max (planktonic P. aeruginosa [3]) [%] | Biofilm eradication (%max) [4] [%] | IC50 (planktonic P. aeruginosa [1]; planktonic, 4 h) [nM] | Depolarization ED50 (planktonic P. aeruginosa [2]; [6]) | Permeabilization ED50 (planktonic P. aeruginosa [3]; [6])
CC[C@H](C)[C@H](NC(=O)[C@H](CCCCN)NC(=O)[C@H](CCC(=O)O)NC(=O)[C@H](CCCCN)NC(=O)[C@H](CO)NC(=O)[C@H](CCCCN)NC(=O)[C@H](CCCNC(=N)N)NC(=O)[C@H](Cc1ccccc1)NC(=O)[C@H](Cc1ccccc1)NC(=O)[C@H](CC(=O)O)NC(=O)CNC(=O)[C@H](CC(C)C)NC(=O)[C@@H](N)CC(C)C)C(=O)NCC(=O)N[C@@H](CCCCN)C(=O)N[C@@H](CCC(=O)O)C(=O)N[C@@H](Cc1ccccc1)C(=O)N[C@@H](CCCCN)C(=O)N[C@@H](CCCNC(=N)N)C(=O)N[C@H](C(=O)N[C@H](C(=O)N[C@@H](CCC(N)=O)C(=O)N[C@@H](CCCNC(=N)N)C(=O)N[C@H](C(=O)N[C@@H](CCCCN)C(=O)N[C@@H](CC(=O)O)C(=O)N[C@@H](Cc1ccccc1)C(=O)N[C@@H](CC(C)C)C(=O)N[C@@H](CCCNC(=N)N)C(=O)N[C@@H](CC(N)=O)C(=O)N[C@@H](CC(C)C)C(=O)N[C@H](C(=O)N1CCC[C@H]1C(=O)N[C@@H](CCCNC(=N)N)C(=O)N[C@H](C(=O)N[C@@H](CCC(=O)O)C(=O)N[C@@H](CO)C(N)=O)[C@@H](C)O)C(C)C)[C@@H](C)CC)C(C)C)[C@@H](C)CC [LL-37] | 2280 ± 220 | 28.24 ± 2.91 | 38.80 ± 1.13 | 35.54 ± 1.13 | – | – | –
CC[C@H](C)[C@H](NC(=O)CNC(=O)[C@@H](NC(=O)[C@H](CCCCN)NC(=O)[C@H](CCCCN)NC(=O)[C@H](Cc1ccccc1)NC(=O)[C@H](CC(C)C)NC(=O)[C@H](CCCCN)NC(=O)[C@H](Cc1c[nH]c2ccccc12)NC(=O)[C@@H](N)CCCCN)[C@@H](C)CC)C(=O)NCC(=O)N[C@@H](C)C(=O)N[C@H](C(=O)N[C@@H](CC(C)C)C(=O)N[C@@H](CCCCN)C(=O)N[C@H](C(=O)N[C@@H](CC(C)C)C(=O)N[C@H](C(=O)N[C@H](C(=O)NCC(=O)N[C@@H](CC(C)C)C(=O)N1CCC[C@H]1C(=O)N[C@@H](C)C(=O)N[C@@H](CC(C)C)C(=O)N[C@H](C(=O)N[C@@H](CO)C(N)=O)[C@@H](C)CC)[C@@H](C)O)[C@@H](C)O)C(C)C)C(C)C [CA-M] | 2540 ± 1080 | 71.36 ± 7.60 | 34.69 ± 2.18 | 53.03 ± 1.46 | – | – | –
CC[C@H](C)[C@H](NC(=O)[C@H](CCC(N)=O)NC(=O)CN)C(=O)N[C@H](C(=O)N[C@@H](CC(N)=O)C(=O)N[C@@H](CC(C)C)C(=O)N[C@@H](CCCCN)C(=O)N[C@@H](C)C(=O)N[C@@H](CO)C(=O)N[C@@H](CC(C)C)C(=O)N[C@@H](CC(=O)O)C(=O)N[C@@H](CC(C)C)C(=O)N[C@@H](CC(C)C)C(N)=O)[C@@H](C)CC [GL-13, GQIINLKASLDLL-NH2] (H-GQIINLKASLDLL-NH2) | – | – | – | 33.28 ± 1.07 | > 50000 | not able to produce any depolarization effect | unable to perform any cell membrane permeabilization
